Our source for the percent remaining values is PubChem BioAssay AID504752 (National Center for Advancing Translational Sciences (NCATS), 2011).

The nature of the data set: Inhibitors of Cruzain: PBS Stability Profiling Assay. The following applies: PBS pH 7 stability, 37 C, LC-MS/MS, 48 h; at 2 µM; hits give high values. From the text:
Chagas Disease is a neglected tropical disease that affects over 16 million people in Latin America. The cysteine protease cruzain is essential for the survival Trypanosoma cruzi, the parasitic agent responsible for Chagas disease. Potential intervention for T. cruzi includes the inhibition of cruzain. This bioassay will summarize the ongoing development of small molecule cruzain inhbitiors. Currently, a screen of ~200k compounds and through extensive follow-up work a probe was identified. To further characterize the probe, it was tested in in vitro ADME assays. The stability of the lead compound in PBS buffer is tested because this parameter has a significant impact on many ADME-concerned properties of drugs, such as uptake, distribution, transport, and eventually bioavailability. NIH Chemical Genomics Center [NCGC] NIH Molecular Libraries Probe Production Centers Network [MLPCN] MLSCN Grant: DA024891-01 PI Name: Dr. Brian Shoichet; University of California, San Francisco
2uM of compound is incubated in PBS buffer at pH 7; the reference compound is procaine. Compounds are incubated at 37 deg C for the pre-determined time periods and the when aliquots are removed. Samples are analyzed with LC-MS/MS.

In the case of `Cc1ccc(OCCn2c(CCNC(=O)C3CCCCC3)nc3ccccc32)cc1`, the percent remaining was 100%.
